# From patent US11498928B2, “Macrocyclic spiroethers as Mcl-1 inhibitors” (ASCENTAGE PHARMA (SUZHOU) CO., LTD., priority 2019, dated 2022)
# Columns and labels:
# [1] = target: T1, Mcl-1 protein (residues 171-323) (Homo sapiens, UniProt Q07820); test: Inhibition of Mcl-1 by fluorescence polarization (FP) competitive binding assay with FAM-Bid tracer; conditions: 2 nM FAM-Bid, 20 nM Mcl-1, 30 min
# T1 construct: Tag-free Mcl-1 protein (residues 171-323) was used in the FP assay
# Summary of the method: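 Ten-point compound titrations compete against 2 nM fluorescein-Bid for 20 nM Mcl-1 (171-323, untagged). Incubation 30 min RT in PBS buffer with BGG and Triton, 5% DMSO final. mP reduction fitted by sigmoidal nonlinear regression for IC50.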
# [2] = tested on: OPM-2 cells; test: Cell viability assay (OPM-2 cells), CCK-8; type: cell-based; conditions: 5% FBS
# Summary of the method: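 Viability read by CCK-8 absorbance (450 nm, 4 h reagent incubation) after 24 h compound exposure of 20000 OPM-2 cells per well at 37 °C. IC50 fitted by nonlinear regression on vehicle-normalized signal.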
# [3] = tested on: NCI-H929 cells; test: Cell viability assay (NCI-H929 cells), CCK-8; type: cell-based; conditions: 5% FBS
# Summary of the method: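 Viability of NCI-H929 cells was measured using the Cell Counting Kit-8. After 24 hrs of compound exposure, 10 μL of CCK-8 solution per well was incubated for 1-4 hours, and absorbance was read at 450 nm on a BioTek Synergy 1MF. Readings were normalized to vehicle (DMSO) cells, and IC50 values were derived by nonlinear regression in GraphPad Prism 6.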
# T1 sequence (Q07820 171-323): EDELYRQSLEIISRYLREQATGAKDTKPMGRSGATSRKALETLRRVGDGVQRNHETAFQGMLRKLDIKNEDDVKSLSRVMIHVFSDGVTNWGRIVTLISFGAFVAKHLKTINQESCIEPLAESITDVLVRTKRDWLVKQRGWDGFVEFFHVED
Compound,IC50 [1] [nM],"IC50 ([2]; Homo sapiens, OPM-2, 24 h) [nM]","IC50 ([3]; Homo sapiens, NCI-H929, 24 h) [nM]",IC50 ([2]; 24 h) [nM],IC50 ([3]; 24 h) [nM]
"C[C@@H]1[C@@H](C)S(=O)(=O)NC(=O)c2ccc3c(c2)N(C[C@@H]2CC[C@H]2[C@@H](OCC(=O)O)C2=C[C@H]1C2)C[C@@]1(CCCc2c1ccc(Cl)c2F)CO3 [compound 74, 2-(((1S,11′R,12′S,13′R,16′R,16a′R,18a′R,E)-6-chloro-5-fluoro-11′,12′-dimethyl-10′,10′-dioxido-8′-oxo-3,4,8′,9′,12′,13′,16′,16a′,17′,18′,18a′,19′-dodecahydro-1′H,2H,3′H,11′H-spiro[naphthalene-1,2′-[5,7]etheno[13,15]methanocyclobuta[i][1,4]oxazepino[3,4-f][1]thia[2,7]diazacyclohexadecin]-16′-yl)oxy)acetic acid]",20,384,450,,
"CO[C@H]1C2=CC(C)(C2)[C@H](C)CS(=O)(=O)NC(=O)c2ccc3c(c2)N(C[C@@H]2CC[C@H]21)C[C@@]1(CCCc2cc(Cl)ccc21)CO3 (single isomer, unassigned) [Cpd. No. 18 (Isomer 1)]",4.2,,,25,37
"CC(C)N1CCN(CCO[C@H]2C3=C[C@@H](C3)[C@H](C)[C@@H](C)S(=O)(=O)NC(=O)c3ccc4c(c3)N(C[C@@H]3CC[C@H]32)C[C@@]2(CCCc3c2ccc(Cl)c3F)CO4)CC1 [compound 90, (1S,11′R,12′S,13′R,16′R,16a′R,18a′R,E)-6-chloro-5-fluoro-16′-(2-(4-isopropylpiperazin-1-yl)ethoxy)-11′,12′-dimethyl-3,4,12′,13′,16′,16a′,17′,18′,18a′,19′-decahydro-1′H,2H,3′H, 11′H-spiro[naphthalene-1,2′-[5,7]etheno[13,15]methanocyclobuta[i][1,4]oxazepino[3,4-f][1]thia[2,7]diazacyclohexadecin]-8′(9′H)-one 10′,10′-dioxide]",12,20,1.6,,
"C[C@@H]1[C@@H](C)S(=O)(=O)NC(=O)c2ccc3c(c2)N(C[C@@H]2CC[C@H]2[C@@H](OCCN2CCCS2(=O)=O)C2=C[C@H]1C2)C[C@@]1(CCCc2c1ccc(Cl)c2F)CO3 [compound 92, (1S,11′R,12′S,13′R,16′R,16a′R,18a′R)-6-chloro-16′-(2-(1,1-dioxidoisothiazolidin-2-yl)ethoxy)-5-fluoro-11′,12′-dimethyl-3,4,12′,13′,16′,16a′,17′,18′,18a′,19′-decahydro-1′H,2H,3′H,11′H-spiro[naphthalene-1,2′-[5,7]etheno[13,15]methanocyclobuta[i][1,4]oxazepino[3,4-f][1]thia[2,7]diazacyclohexadecin]-8′(9′H)-one 10′,10′-dioxide]",14,44,59,,
"C[C@@H]1[C@@H](C)S(=O)(=O)NC(=O)c2ccc3c(c2)N(C[C@@H]2CC[C@H]2[C@@H](OCCN2CCN(C4CCOCC4)CC2)C2=C[C@H]1C2)C[C@@]1(CCCc2c1ccc(Cl)c2F)CO3 [compound 89, (1S,11′R,12′S,13′R,16′R,16a′R,18a′R)-6-chloro-5-fluoro-11′,12′-dimethyl-16′-(2-(4-(tetrahydro-2H-pyran-4-yl)piperazin-1-yl)ethoxy)-3,4,12′,13′,16′,16a′,17′,18′,18a′,19′-decahydro-1′H,2H,3′H, 11′H-spiro[naphthalene-1,2′-[5,7]etheno[13,15]methanocyclobuta[i][1,4]oxazepino[3,4-f][1]thia[2,7]diazacyclohexadecin]-8′(9′H)-one 10′,10′-dioxide]",11,53,7.5,,
"CO[C@H]1C2=C[C@H](C2)[C@H](C)CS(=O)(=O)NC(=O)c2ccc3c(c2)N(C[C@@H]2CC[C@H]21)C[C@@]1(CCCc2c1ccc(Cl)c2F)CS3 (single isomer, unassigned) [24 (isomer 2)]",4.8,3300,4300,,
